Laboratory results from patent US6908935B2, “Calcium receptor modulating agents” (Amgen Inc., priority 2002, dated 2005).

target: T1, human parathyroid cell Ca^2+ receptor (hPCaR) (Homo sapiens, UniProt P41180); assay: [Ca2+]i measurement with fluo-3 in HEK 293 4.0-7 cells stably transfected with hPCaR; type: cell-based; conditions: fluo-3 fluorescence (485/530 nm), effect on [Ca^2+]i
T1 construct: expressed in transfected cells
T1 sequence (P41180 20-1078): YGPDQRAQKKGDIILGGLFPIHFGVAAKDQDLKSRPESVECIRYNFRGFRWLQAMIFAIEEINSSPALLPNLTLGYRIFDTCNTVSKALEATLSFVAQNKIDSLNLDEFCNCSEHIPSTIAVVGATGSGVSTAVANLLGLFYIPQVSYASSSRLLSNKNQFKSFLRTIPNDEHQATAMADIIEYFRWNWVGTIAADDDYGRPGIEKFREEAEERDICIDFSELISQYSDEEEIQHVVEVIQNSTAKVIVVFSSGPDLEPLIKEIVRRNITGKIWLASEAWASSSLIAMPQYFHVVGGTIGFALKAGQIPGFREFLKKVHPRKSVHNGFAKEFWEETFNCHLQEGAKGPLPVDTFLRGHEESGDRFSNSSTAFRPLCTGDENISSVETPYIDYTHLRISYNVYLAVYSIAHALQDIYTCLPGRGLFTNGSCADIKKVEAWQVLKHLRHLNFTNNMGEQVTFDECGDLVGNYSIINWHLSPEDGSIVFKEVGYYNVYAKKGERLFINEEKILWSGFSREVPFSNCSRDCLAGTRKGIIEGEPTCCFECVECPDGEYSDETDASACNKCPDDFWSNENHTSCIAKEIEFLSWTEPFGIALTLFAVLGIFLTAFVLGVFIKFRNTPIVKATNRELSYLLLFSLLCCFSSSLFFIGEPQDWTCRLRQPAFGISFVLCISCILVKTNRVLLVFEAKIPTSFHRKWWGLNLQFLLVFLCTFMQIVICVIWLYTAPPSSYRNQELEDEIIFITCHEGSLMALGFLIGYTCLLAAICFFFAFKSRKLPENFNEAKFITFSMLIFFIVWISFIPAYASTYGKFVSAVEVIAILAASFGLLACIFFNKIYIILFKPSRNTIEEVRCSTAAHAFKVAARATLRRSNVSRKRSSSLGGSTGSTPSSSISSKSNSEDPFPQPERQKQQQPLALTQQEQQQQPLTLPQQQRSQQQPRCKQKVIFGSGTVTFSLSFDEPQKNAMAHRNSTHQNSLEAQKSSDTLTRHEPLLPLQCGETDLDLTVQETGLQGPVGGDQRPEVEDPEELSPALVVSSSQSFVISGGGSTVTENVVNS
How it was run: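 Cytosolic [Ca2+] was read as fluo-3 fluorescence (ex 485/em 530 nm) after compound addition to washed cells. Cells were hPCaR-transfected HEK 293 clone 7, dye-loaded 30 min at 37 °C with 2 μM fluo-3 acetoxymethyl ester in HEPES-buffered saline pH 7.45 containing 1 mM CaCl2 and 0.5% BSA.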

EC50, ≤ 10 µM:
COc1ccc(CN[C@H](C)c2cccc3ccccc23)cc1N1CCCC1 [(1R)-N-((4-(methyloxy)-3-(1-pyrrolidinyl)phenyl)methyl)-1-(1-naphthalenyl)ethanamine], COc1ccc(CN[C@H](C)c2ccccc2)cc1N1CCCC1 [(1R)-N-((4-(methyloxy)-3-(1-pyrrolidinyl)phenyl)methyl)-1-phenylethanamine], COc1ccc(CN[C@H](C)c2cccc3ccccc23)cc1-n1cccc1 [(1R)-N-((4-(methyloxy)-3-(1H-pyrrol-1-yl)phenyl)methyl)-1-(1-naphthalenyl)ethanamine], COc1ccc(CN[C@H](C)c2ccccc2)cc1-n1cccc1 [(1R)-N-((4-(methyloxy)-3-(1H-pyrrol-1-yl)phenyl)methyl)-1-phenylethanamine], COc1ccc(CN[C@H](C)c2cccc3ccccc23)cc1-c1csc(N2CCCCC2)n1 [(1R)-N-((4-(methyloxy)-3-(2-(1-piperidinyl)-1,3-thiazol-4-yl)phenyl)methyl)-1-(1-naphthalenyl)ethanamine], COc1ccc(CN[C@H](C)c2ccccc2)cc1-c1csc(N2CCCCC2)n1 [(1R)-N-((4-(methyloxy)-3-(2-(1-piperidinyl)-1,3-thiazol-4-yl)phenyl)methyl)-1-phenylethanamine], COc1ccc(CN[C@H](C)c2ccccc2)cc1-c1cccnc1N1CCOCC1 [(1R)-N-((4-(methyloxy)-3-(2-(4-morpholinyl)-3-pyridinyl)phenyl)methyl)-1-phenylethanamine], COc1ccc(CN[C@H](C)c2ccccc2)cc1-c1cccnc1OCC(F)(F)F [(1R)-N-((4-(methyloxy)-3-(2-((2,2,2-trifluoroethyl)oxy)-3-pyridinyl)phenyl)methyl)-1-phenylethanamine], COc1ccc(CN[C@H](C)c2cccc3ccccc23)cc1-c1cnc(OCC(F)(F)F)nc1 [(1R)-N-((4-(methyloxy)-3-(2-((2,2,2-trifluoroethyl)oxy)-5-pyrimidinyl)phenyl)methyl)-1-(1-naphthalenyl)ethanamine], COc1ccc(CN[C@H](C)c2ccccc2)cc1-c1cnc(OCC(F)(F)F)nc1 [(1R)-N-((4-(methyloxy)-3-(2-((2,2,2-trifluoroethyl)oxy)-5-pyrimidinyl)phenyl)methyl)-1-phenylethanamine], COc1ccc(CN[C@H](C)c2ccccc2)cc1-c1cccnc1OCC1CCCO1 (stereo partly drawn) [(1R)-N-((4-(methyloxy)-3-(2-((tetrahydro-2-furanylmethyl)oxy)-3-pyridinyl)phenyl)methyl)-1-phenylethanamine], COc1ccc(CN[C@H](C)c2cccc3ccccc23)cc1-c1csc(C)n1 [(1R)-N-((4-(methyloxy)-3-(2-methyl-1,3-thiazol-4-yl)phenyl)methyl)-1-(1-naphthalenyl)ethanamine], COc1cccc([C@@H](C)NCc2ccc(OC)c(-c3csc(C)n3)c2)c1 [(1R)-N-((4-(methyloxy)-3-(2-methyl-1,3-thiazol-4-yl)phenyl)methyl)-1-(3-(methyloxy)phenyl)ethanamine], COc1ccc(CN[C@H](C)c2ccccc2)cc1-c1csc(C)n1 [(1R)-N-((4-(methyloxy)-3-(2-methyl-1,3-thiazol-4-yl)phenyl)methyl)-1-phenylethanamine], COc1ccc(CN[C@H](C)c2cccc3ccccc23)cc1-c1ccc2ccccc2c1 [(1R)-N-((4-(methyloxy)-3-(2-naphthalenyl)phenyl)methyl)-1-(1-naphthalenyl)ethanamine], COc1cccc([C@@H](C)NCc2ccc(OC)c(-c3ccc4ccccc4c3)c2)c1 [(1R)-N-((4-(methyloxy)-3-(2-naphthalenyl)phenyl)methyl)-1-(3-(methyloxy)phenyl)ethanamine], COc1ccc(CN[C@H](C)c2ccccc2)cc1-c1ccc2ccccc2c1 [(1R)-N-((4-(methyloxy)-3-(2-naphthalenyl)phenyl)methyl)-1-phenylethanamine], COc1ccc(CN[C@H](C)c2cccc3ccccc23)cc1-c1cnccn1 [(1R)-N-((4-(methyloxy)-3-(2-pyrazinyl)phenyl)methyl)-1-(1-naphthalenyl)ethanamine], COc1ccc(CN[C@H](C)c2ccc3ccccc3c2)cc1-c1cnccn1 [(1R)-N-((4-(methyloxy)-3-(2-pyrazinyl)phenyl)methyl)-1-(2-naphthalenyl)ethanamine], COc1ccc(CN[C@H](C)c2ccc(C)cc2)cc1-c1cnccn1 [(1R)-N-((4-(methyloxy)-3-(2-pyrazinyl)phenyl)methyl)-1-(4-methylphenyl)ethanamine], COc1ccc(CN[C@H](C)c2cccc3ccccc23)cc1-c1ccccn1 [(1R)-N-((4-(methyloxy)-3-(2-pyridinyl)phenyl)methyl)-1-(1-naphthalenyl)ethanamine], COc1ccc(CN[C@H](C)c2cccc3ccccc23)cc1-c1ncccn1 [(1R)-N-((4-(methyloxy)-3-(2-pyrimidinyl)phenyl)methyl)-1-(1-naphthalenyl)ethanamine], COc1ccc(CN[C@H](C)c2ccccc2)cc1-c1ncccn1 [(1R)-N-((4-(methyloxy)-3-(2-pyrimidinyl)phenyl)methyl)-1-phenylethanamine], COc1ccc(CN[C@H](C)c2cccc3ccccc23)cc1-c1cccs1 [(1R)-N-((4-(methyloxy)-3-(2-thienyl)phenyl)methyl)-1-(1-naphthalenyl)ethanamine], COc1ccc(CN[C@H](C)c2ccccc2)cc1-c1cccs1 [(1R)-N-((4-(methyloxy)-3-(2-thienyl)phenyl)methyl)-1-phenylethanamine], COc1ccc(CN[C@H](C)c2cccc3ccccc23)cc1-c1cccnc1 [(1R)-N-((4-(methyloxy)-3-(3-pyridinyl)phenyl)methyl)-1-(1-naphthalenyl)ethanamine], COc1ccc(CN[C@H](C)c2ccc(C)cc2)cc1-c1cccnc1 [(1R)-N-((4-(methyloxy)-3-(3-pyridinyl)phenyl)methyl)-1-(4-methylphenyl)ethanamine], COc1ccc(CN[C@H](C)c2cccc3ccccc23)cc1-c1ccsc1 [(1R)-N-((4-(methyloxy)-3-(3-thienyl)phenyl)methyl)-1-(1-naphthalenyl)ethanamine], COc1ccc(CN[C@H](C)c2ccc3ccccc3c2)cc1-c1ccsc1 [(1R)-N-((4-(methyloxy)-3-(3-thienyl)phenyl)methyl)-1-(2-naphthalenyl)ethanamine], COc1ccc(CN[C@H](C)c2ccc(C)cc2)cc1-c1ccsc1 [(1R)-N-((4-(methyloxy)-3-(3-thienyl)phenyl)methyl)-1-(4-methylphenyl)ethanamine], COc1ccc(CN[C@H](C)c2ccccc2)cc1-c1ccsc1 [(1R)-N-((4-(methyloxy)-3-(3-thienyl)phenyl)methyl)-1-phenylethanamine], COc1cccc([C@@H](C)NCc2ccc(OC)c(-c3cc(OC)ccn3)c2)c1 [(1R)-N-((4-(methyloxy)-3-(4-(methyloxy)-2-pyridinyl)phenyl)methyl)-1-(3-(methyloxy)phenyl)ethanamine], COc1ccnc(-c2cc(CN[C@H](C)c3ccccc3)ccc2OC)c1 [(1R)-N-((4-(methyloxy)-3-(4-(methyloxy)-2-pyridinyl)phenyl)methyl)-1-phenylethanamine], COc1ccc(CN[C@H](C)c2cccc3ccccc23)cc1C1CCNCC1 [(1R)-N-((4-(methyloxy)-3-(4-piperidinyl)phenyl)methyl)-1-(1-naphthalenyl)ethanamine], COc1ccc(-c2cc(CN[C@H](C)c3cccc4ccccc34)ccc2OC)nc1 [(1R)-N-((4-(methyloxy)-3-(5-(methyloxy)-2-pyridinyl)phenyl)methyl)-1-(1-naphthalenyl)ethanamine]
